Results taken from publication PMC11843613, “Further Optimization of the mGlu1 PAM VU6024578/BI02982816: Discovery and Characterization of VU6033685” (ACS Chemical Neuroscience, 2025).

Experiments:
rat mGlu1 = rat mGlu1 (Rattus norvegicus, UniProt P23385); experiment: mGlu1 PAM functional assay (rat); format: cell-based
[1] = Plasma protein binding, equilibrium dialysis (rat); format: in vitro ADME; conditions: pH 7.4, rat plasma, read-out: fu plasma (r)
Protocol: page 13: at half log concentrations in DMSO were further diluted in assay buffer. The compounds or DMSO vehicle were added to cells and incubated for 2.5 min and an EC20 concentration of glutamate was added and incubated for 1 min. An ECmax concentration of glutamate was also added to cells that were incubated with DMSO vehicle to accurately calculate the EC20 calcium response. Data were normalized by subtracting the basal florescent peak before EC20 agonist addition from the maximal peak elicited by EC20 agonist and PAMs. Using GraphPad Prism 5.0, the concentration response curves were generated and the potencies of the mGlu1 PAMs were determined. DMPK Methods Plasma protein binding: The protein binding of each compound was determined in plasma via equilibrium dialysis employing RED Plates (ThermoFisher Scientific, Rochester, NY). Plasma was added to the 96 well plate containing test compound and mixed thoroughly for a final concentration of 5 µM. Subsequently, an aliquot of the plasma-compound mixture was transferred to the cis chamber (red) of the RED plate, with an phosphate buffer (25 mM, pH 7.4) in the trans chamber. The RED plate was sealed and incubated for 4 hours at 37°C with shaking. At completion, aliquots from each chamber were diluted 1:1 with either plasma (cis) or buffer (trans) and transferred to a new 96 well plate, at which time ice-cold acetonitrile containing internal standard (50 ng/mL carbamazepine) (2 volumes) was added to extract the matrices. The plate was centrifuged (3000 rcf, 10 min) and supernatants transferred and diluted 1:1 (supernatant: water) into a new 96 well plate, which was then sealed in preparation for LC/MS/MS analysis. Each compound was assayed in triplicate within the same 96-well plate. Fraction unbound was determined using the following equation F = Concbuffer u Conc plasma Intrinsic clearance: Human or rat hepatic microsomes (0.5 mg/mL) and 1 µM test compound were incubated in 100 mM potassium phosphate pH 7.4 buffer with 3 mM MgCl2 at 37°C with constant shaking. After a 5 min preincubation, the reaction was initiated by addition of NADPH (1 mM). At selected time intervals (0, 3, 7, 15, 25, and 45 min), aliquots were taken and subsequently placed into a 96-well plate containing cold acetonitrile with internal standard (50 ng/mL carbamazepine). Plates were then centrifuged at 3000 rcf (4° C) for 10 min, and the supernatant was transferred to a separate 96-well plate and diluted 1:1 with water for LC/MS/MS analysis. The in vitro half-life (T 1/2, min, Eq. 1), intrinsic clearance (CLint, mL/min/kg, Eq. 2) and subsequent predicted hepatic clearance (CLhep, mL/min/kg, Eq. 3) was determined S13

CYP450 3A4 = molecular target: T1, CYP450 3A4 (Homo sapiens, UniProt P08684); experiment: Inhibition of cytochrome P450 enzymes in human liver microsomes, 3A4; format: in vitro ADME
T1 construct: 0.1 mg/mL human liver microsomes (HLM); from tissue; host or cells: human liver microsomes
T1 sequence (P08684 whole entry): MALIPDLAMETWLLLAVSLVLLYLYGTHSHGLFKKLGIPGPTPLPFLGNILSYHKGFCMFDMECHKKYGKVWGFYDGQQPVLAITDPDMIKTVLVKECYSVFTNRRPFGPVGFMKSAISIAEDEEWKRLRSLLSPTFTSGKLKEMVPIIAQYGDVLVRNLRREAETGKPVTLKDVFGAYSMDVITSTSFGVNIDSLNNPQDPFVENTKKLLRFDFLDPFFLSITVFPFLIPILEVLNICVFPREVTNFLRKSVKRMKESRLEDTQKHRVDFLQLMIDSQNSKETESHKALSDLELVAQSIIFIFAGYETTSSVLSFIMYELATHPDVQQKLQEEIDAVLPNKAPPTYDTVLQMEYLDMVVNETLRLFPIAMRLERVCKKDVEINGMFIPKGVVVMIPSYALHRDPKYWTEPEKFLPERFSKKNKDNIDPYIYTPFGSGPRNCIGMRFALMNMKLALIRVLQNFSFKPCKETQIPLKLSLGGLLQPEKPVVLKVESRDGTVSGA
Protocol: (§1) Inhibition of Cytochrome P450 Enzymes: A cocktail of substrates for cytochrome P450 enzymes (1A2: Phenacetin, 10 µM; 2C9: Diclofenac, 5 µM; 2D6: Dextromethorphan, 5 µM; 3A4:
(§2) Midazolam, 2 µM) were mixed for cocktail analysis. For P450 2C19, the substrate stock (Mephenytoin, 40 µM )and substrate mix were prepared separately for discrete analysis. The […]
(§3) positive control for pan-P450 inhibition (miconazole) was included alongside each test compound […]
(§4) A reaction mixture of 100 mM Kpi, pH 7.4, 0.1 mg/mL human liver microsomes (HLM) and Substrate Mix is prepared and aliquoted into a 96-deepwell block. Test compound and positive control (in duplicate) were then added such that the final concentration of test compound ranged from 0.1 – 30 µM. The plate was vortexed briefly and then pre-incubated at 37 °C while shaking for 15 minutes. The reaction was initiated with the addition of NADPH (1 mM final concentration). The incubation continued for 8 min and the reaction quenched by 2x volume of cold acetonitrile containing internal standard (50 nM carbamazepine). The plate was centrifuged for 10 minutes (4000 rcf, 4°C) and the resulting supernatant diluted 1:1 with water for LC/MS/MS analysis. A 12 point standard curve of substrate metabolites over the range of 0.98 nM to 2000 […]
(§5) Samples were analyzed via electrospray ionization (ESI) on an AB Sciex API-4000 (Foster City, CA) triple-quadrupole instrument that was coupled with Shimadzu LC-10AD pumps (Columbia, MD) and a Leap Technologies CTC PAL auto-sampler (Carrboro, NC). Analytes were separated by gradient elution using a Fortis C18 3.0 x 50 mm, 3 µm column (Fortis Technologies Ltd, Cheshire, UK) thermostated at 40°C. HPLC mobile phase A was 0.1% formic acid in water (pH unadjusted), mobile phase B was 0.1% formic acid in acetonitrile (pH unadjusted). The gradient […]
(§6) 90% B for 0.1 min and returned to 10% B in 0.1 min followed by a re-equilibration (0.9 min). The total run time was 2.5 min and the HPLC flow rate was 0.5 mL/min. The source temperature was set at 500°C and mass spectral analyses were performed using multiple reaction monitoring (MRM), with transitions specific for each compound utilizing a Turbo-Ionspray® source in positive ionization mode (5.0 kV spray voltage).
(§7) The IC50 values for each compound were obtained for the individual CYP enzymes by quantitating the inhibition of metabolite formation for each probe substrate. A 0 µM compound condition (or control) was set to 100% enzymatic activity and the effect of increasing test compound concentrations on enzymatic activity could then be calculated from the % of control activity.
(§8) Curves were fitted using XLfit 5.2.2 (four-parameter logistic model, equation 201) to determine the concentration that produces half-maximal inhibition (IC50).

CYP450 2C9 = molecular target: T2, CYP450 2C9 (Homo sapiens, UniProt P11712); experiment: Inhibition of cytochrome P450 enzymes in human liver microsomes, 2C9; format: in vitro ADME
T2 construct: 0.1 mg/mL human liver microsomes (HLM); from tissue; host or cells: human liver microsomes
T2 sequence (P11712 whole entry): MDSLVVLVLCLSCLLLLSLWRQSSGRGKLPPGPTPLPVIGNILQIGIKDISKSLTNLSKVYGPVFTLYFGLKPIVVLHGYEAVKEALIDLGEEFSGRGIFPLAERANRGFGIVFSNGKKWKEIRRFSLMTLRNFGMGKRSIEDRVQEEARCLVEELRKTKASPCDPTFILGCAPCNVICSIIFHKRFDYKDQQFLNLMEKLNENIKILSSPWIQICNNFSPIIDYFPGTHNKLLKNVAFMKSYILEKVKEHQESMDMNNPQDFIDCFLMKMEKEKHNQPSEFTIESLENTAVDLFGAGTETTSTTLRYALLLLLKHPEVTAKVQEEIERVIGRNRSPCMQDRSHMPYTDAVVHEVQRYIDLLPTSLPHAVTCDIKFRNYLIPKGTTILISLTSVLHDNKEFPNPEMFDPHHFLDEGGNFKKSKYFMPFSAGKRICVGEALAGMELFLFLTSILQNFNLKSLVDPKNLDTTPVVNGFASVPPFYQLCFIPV
Protocol: as §1, §2, §3, §4, §5, §6, §7, §8

[2] = Rat IV/PO pharmacokinetics; format: in vivo; conditions: for clearance / Vd / half-life / Tmax: plasma; for clearance / Vd: rat IV; for clearance: read-out: CLp; for F po / Tmax: rat PO; for Vd / half-life: rat; for Vd: iv, read-out: Vss; for half-life: read-out: Elimination t1/2 (converted)

rat mGlu1, sequence (P23385 19-1199): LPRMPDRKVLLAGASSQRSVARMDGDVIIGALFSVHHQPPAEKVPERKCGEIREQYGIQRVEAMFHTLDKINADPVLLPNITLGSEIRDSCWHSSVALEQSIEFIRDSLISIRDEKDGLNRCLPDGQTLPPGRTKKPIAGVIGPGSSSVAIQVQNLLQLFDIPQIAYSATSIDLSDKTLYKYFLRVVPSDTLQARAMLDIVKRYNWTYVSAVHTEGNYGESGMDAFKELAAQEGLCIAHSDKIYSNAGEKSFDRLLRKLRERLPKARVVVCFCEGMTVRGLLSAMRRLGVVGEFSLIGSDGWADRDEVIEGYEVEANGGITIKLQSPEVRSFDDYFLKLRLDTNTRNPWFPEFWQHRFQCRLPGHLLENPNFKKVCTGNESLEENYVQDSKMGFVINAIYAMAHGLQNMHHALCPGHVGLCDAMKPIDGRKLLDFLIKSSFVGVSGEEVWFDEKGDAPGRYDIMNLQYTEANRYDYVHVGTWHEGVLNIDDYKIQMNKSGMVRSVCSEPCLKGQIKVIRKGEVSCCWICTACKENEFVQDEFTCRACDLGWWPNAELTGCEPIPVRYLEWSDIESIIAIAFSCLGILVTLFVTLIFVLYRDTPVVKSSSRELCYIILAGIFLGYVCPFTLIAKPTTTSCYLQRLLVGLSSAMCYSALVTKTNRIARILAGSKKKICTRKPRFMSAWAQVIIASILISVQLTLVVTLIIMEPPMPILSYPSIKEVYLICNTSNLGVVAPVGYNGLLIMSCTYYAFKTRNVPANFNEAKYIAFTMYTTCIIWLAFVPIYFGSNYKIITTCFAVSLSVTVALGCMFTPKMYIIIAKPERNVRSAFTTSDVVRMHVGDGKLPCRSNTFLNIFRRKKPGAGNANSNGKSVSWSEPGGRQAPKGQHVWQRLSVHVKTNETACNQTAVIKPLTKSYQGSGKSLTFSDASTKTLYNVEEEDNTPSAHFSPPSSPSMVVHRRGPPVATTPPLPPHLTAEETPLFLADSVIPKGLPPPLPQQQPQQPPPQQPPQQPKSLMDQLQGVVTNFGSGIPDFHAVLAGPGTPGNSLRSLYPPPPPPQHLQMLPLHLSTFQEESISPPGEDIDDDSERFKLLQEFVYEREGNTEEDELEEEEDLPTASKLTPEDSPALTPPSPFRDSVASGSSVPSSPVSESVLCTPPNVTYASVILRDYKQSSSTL

Cn1cc(-c2cc(CNC(=O)c3cc(-c4ccco4)ccc3Cl)n(C)n2)cn1 [compound 4]
EC50 (rat mGlu1): 0.037 µM | rat mGlu1 Glu Max (rat mGlu1): 137% | fraction unbound at 4 h, 5 µM [1]: 0.04 | IC50 (CYP450 3A4): > 30 µM | IC50 (CYP450 2C9): > 30 µM

Cn1nc(-c2ccnn2C)cc1CNC(=O)c1cc(-n2cccn2)ccc1Cl [compound 5]
EC50 (rat mGlu1): 0.558 µM | rat mGlu1 Glu Max (rat mGlu1): 105% | fraction unbound at 4 h, 5 µM [1]: 0.095 | IC50 (CYP450 3A4): > 30 µM | IC50 (CYP450 2C9): > 30 µM | clearance [2]: 2.9 mL/min/kg | F po [2]: 45.7% | Vd [2]: 0.63 L/kg | half-life [2]: 3 h

Cc1nc2ccccc2cc1CNC(=O)c1cc(-n2cccn2)ccc1Cl [compound 6]
fraction unbound at 4 h, 5 µM [1]: 0.054 | IC50 (CYP450 3A4): 8.8 µM | IC50 (CYP450 2C9): 6.4 µM | clearance [2]: 15.3 mL/min/kg | Tmax [2]: 0.5 h | F po [2]: 64% | Vd [2]: 1.64 L/kg | half-life [2]: 1.1 h

Cc1nc2c(F)cccc2cc1CNC(=O)c1cc(-n2cccn2)ccc1Cl [compound 7]
fraction unbound at 4 h, 5 µM [1]: 0.016 | IC50 (CYP450 3A4): 9 µM | IC50 (CYP450 2C9): 5.9 µM | clearance [2]: 8 mL/min/kg | Vd [2]: 1 L/kg | half-life [2]: 2.1 h

Cc1nc(C2CC2)ccc1CNC(=O)c1cc(-n2cccn2)ccc1Cl [compound 8]
EC50 (rat mGlu1): 0.107 µM | rat mGlu1 Glu Max (rat mGlu1): 94% | fraction unbound at 4 h, 5 µM [1]: 0.097 | IC50 (CYP450 3A4): 23.8 µM | IC50 (CYP450 2C9): 22.3 µM | clearance [2]: 26.4 mL/min/kg | Tmax [2]: 0.5 h | F po [2]: 42.8% | Vd [2]: 5.1 L/kg | half-life [2]: 2.1 h
